{
  "source": "patent US20260027083A1",
  "about": "“USE OF PPAR AGONIST FOR IMPROVEMENT OF ENERGY METABOLISM” (NOVMETAPHARMA CO., LTD., priority 2022, published 2026)",
  "key": {"[1]": {"molecular_target": "T1, PPARβ/δ (Homo sapiens, UniProt Q03181)", "T1 construct": "three types of pcDNA5-GAL4 and pGALRE-luc containing PPARα-LBD, PPARβ/δ-LBD, or PPARγ-LBD; GAL4 (fusion partner from vector pcDNA5-GAL4); expressed in transfected cells; host or cells: HEK293", "T1 sequence (Q03181 211-439 limits assumed)": "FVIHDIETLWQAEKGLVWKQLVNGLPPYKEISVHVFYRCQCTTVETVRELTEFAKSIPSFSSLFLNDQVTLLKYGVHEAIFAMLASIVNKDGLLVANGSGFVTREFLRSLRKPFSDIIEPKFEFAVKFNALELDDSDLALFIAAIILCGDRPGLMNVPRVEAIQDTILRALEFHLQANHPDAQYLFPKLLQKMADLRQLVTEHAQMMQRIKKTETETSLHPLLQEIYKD", "test": "Gal4 trans-activated luciferase reporter assay, PPARβ/δ-LBD, HEK293", "assay_type": "cell-based", "settings": "HEK293, drug treatment 24 hours, FIG. 1", "description": "(§1) A plasmid was transformed into E. coli (DE3, Rosetta) and transfected into HEK293 cells and used. Referring to known literatures such as Kanno, Y. & Inouye, Y. J Toxicol Sci 35, 515-525 (2010), Zhao, S. et al. J Nat Prod 79, 879-885 (2016), etc., luciferase assay was performed on three types of pcDNA5-GAL4 and pGALRE-luc containing PPARα-LBD, PPARβ/δ-LBD, or PPARγ-LBD. pProEX-PPAR and pET-28a were used for purification of His-tagged recombinant hPPAR-LBD protein.\n(§2) A HEK293 cell line was cultured in Dulbecco's Modified Eagle Medium (DMEM) containing 10% Fetal Bovine Serum (FBS) and 1% penicillin-streptomycin (P/S). […]\n(§3) Transfected HEK293 cells were treated with a drug and after 24 hours, the cells were collected, resuspended in a luciferase lysis buffer (Promega, Madison, Wisconsin, USA), and incubated on ice for 10 minutes. […] Next, Firefly Luciferase (Fluc) and Renilla Luciferase (Rluc) activities were measured using the Dual Luciferase Reporter Assay System (Promega, Madison, Wisconsin, USA). […]\n(§4) To confirm whether a compound represented by Chemical Formula 1 was a PPAR agonist, Gal4 trans-activated luciferase assay was performed. Specifically, HEK293 cells were transfected with the Gal4-luciferase reporter systems of PPARα, PPARβ/δ, and PPARγ, respectively, harvested after drug treatment for 24 hours, and then analyzed by Dual-Luciferase assay. […]"}, "[2]": {"molecular_target": "T2, PPARγ (Homo sapiens, UniProt P37231)", "T2 construct": "three types of pcDNA5-GAL4 and pGALRE-luc containing PPARα-LBD, PPARβ/δ-LBD, or PPARγ-LBD; GAL4 (fusion partner from vector pcDNA5-GAL4); expressed in transfected cells; host or cells: HEK293", "T2 sequence (P37231 238-503 limits assumed)": "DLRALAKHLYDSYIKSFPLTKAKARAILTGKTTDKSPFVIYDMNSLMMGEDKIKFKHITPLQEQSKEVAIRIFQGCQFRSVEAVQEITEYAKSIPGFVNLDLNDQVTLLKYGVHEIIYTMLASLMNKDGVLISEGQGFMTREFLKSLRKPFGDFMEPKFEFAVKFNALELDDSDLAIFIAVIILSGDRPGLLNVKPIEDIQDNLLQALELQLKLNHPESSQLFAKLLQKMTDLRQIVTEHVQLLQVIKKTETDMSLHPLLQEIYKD", "test": "Gal4 trans-activated luciferase reporter assay, PPARγ-LBD, HEK293", "assay_type": "cell-based", "settings": "HEK293, drug treatment 24 hours, FIG. 1", "description": "as §1, §2, §3, §4"}, "[3]": {"molecular_target": "T3, His-tagged recombinant human PPARγ ligand binding domain (Homo sapiens, UniProt P37231)", "T3 construct": "made in house; host or cells: E. coli (DE3, Rosetta)", "T3 sequence (P37231 238-503 limits assumed)": "T2 sequence (P37231 238-503 limits assumed)", "test": "CNBr-bead conjugation (pull-down) assay, hPPARγ-LBD", "settings": "CNBr-coupled drug, positive control rosiglitazone, FIG. 2", "description": "A compound of the present invention represented by Chemical Formula 1 was synthesized by DAEJUNG Chemicals & Metals (Gyeonggi-do, Korea) (indicated as ‘D6’ in the drawing). WY14643, GW501516, and rosiglitazone were purchased from Sigma-Aldrich (St. Louis, MO, USA). The compounds were dissolved in dimethyl sulfoxide (DMSO), diluted in a culture solution, and used in the experiment. Cyanogen bromide (CNBr)-activated Sepharose 4B was purchased from Sigma-Aldrich (St. Louis, MO, USA). His-tagged recombinant human PPAR-ligand binding domain (LBD) was expressed in E. coli (DE3, Rosetta) and then purified and used. A His antibody was purchased from Cell Signaling Technology (Danvers, Massachusetts, USA). 3-Isobutyl-1-methylxanthine (IBMX), dexamethasone, bovine pancreatic insulin, and Oil Red O were purchased from Sigma-Aldrich (St. Louis, MO, USA). A PRO-PREP™ Protein Extraction Solution was purchased from iNtRON Biotechnology (iNtRON Biotech., Korea). […]\n100 mg of CNBr-activated Sepharose 4B was added to an e-tube, and then the beads were activated by rotating with 1 ml of 1 mM HCl for 10 minutes at room temperature. […] Each e-tube was added with the drug and rotated overnight at 4° C., at which time the concentration was measured to be 20 μM. […] The supernatant was completely removed, and the pellet was detected by Western blotting. […]"}},
  "data": [
    {"smiles": "COc1ccc(-c2cc(=O)oc3c(C)c(OC(=O)[C@H](Cc4c[nH]c5ccccc45)NC(=O)OC(C)(C)C)ccc23)cc1", "note": "[Chemical Formula 1, [4-(4-methoxyphenyl)-8-methyl-2-oxochromen-7-yl] (2S)-3-(1H-indol-3-yl)-2-[(2-methylpropan-2-yl)oxycarbonylamino]propanoate]", "values": [
      {"measurement": "relative luciferase activity (Fluc to Rluc) for PPARβ/δ", "setting": "[1]", "value": "dose-dependently increased"},
      {"measurement": "relative luciferase activity (Fluc to Rluc) for PPARγ", "setting": "[2]", "value": "dose-dependently increased"},
      {"measurement": "conjugation (binding) to hPPARγ-LBD, Western blotting", "setting": "[3]", "value": "as much potently as a PPAR agonist used as a positive control"}
    ]}
  ]
}
